Numbered stars: 1 amine (or outer) side, 2 acyl side, 3 side chain; on linkers, the order of the positions; unused ones are H or OH. Square brackets hold non-standard residues; d marks the D form. Side chains are listed from the residue outwards. Peptide text beside a SMILES is read from it. * marks the point of attachment. C18 diacid = O=C(O)CCCCCCCCCCCCCCCCC(=O)*; γGlu = O=C(O)[C@H](CCC(=O)[*:2])N[*:1]; dIva = CC[C@@](C)(N)C(=O)O; AEEA = NCCOCCOCC(=O)O; Aib = CC(C)(N)C(=O)O
Tests used:
human GIP receptor = target: T1, human GIP receptor (Homo sapiens, UniProt P48546); experiment: In vitro cellular cAMP assay for GIP receptor efficacy (human adipocytes); format: cell-based; settings: for Emax: read-out: hGIPR Emax; for EC50: read-out: hGIPR EC50
T1 construct: human adipocytes endogenously expressing the human GIP receptor; host or cells: human preadipocytes (Lonza) differentiated to adipocytes
T1 sequence (P48546 22-466): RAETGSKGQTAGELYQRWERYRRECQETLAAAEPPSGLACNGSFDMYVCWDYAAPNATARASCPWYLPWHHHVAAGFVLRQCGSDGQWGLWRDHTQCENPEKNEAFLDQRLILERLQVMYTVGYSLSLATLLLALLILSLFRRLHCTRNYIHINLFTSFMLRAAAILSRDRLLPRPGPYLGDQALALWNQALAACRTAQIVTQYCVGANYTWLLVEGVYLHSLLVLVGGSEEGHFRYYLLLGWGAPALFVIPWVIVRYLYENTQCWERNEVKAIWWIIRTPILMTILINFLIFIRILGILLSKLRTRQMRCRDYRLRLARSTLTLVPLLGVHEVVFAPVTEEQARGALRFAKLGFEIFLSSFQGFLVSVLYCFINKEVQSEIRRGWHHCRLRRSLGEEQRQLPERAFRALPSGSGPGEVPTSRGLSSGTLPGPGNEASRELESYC
Summary of the method: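 cAMP is read by HTRF (665/620 nm ratio, 1 h after reagents in lysis buffer) following 30 min compound exposure at room temperature. Cells are human preadipocyte-derived adipocytes, differentiated 6 days with insulin, dexamethasone, IBMX (200 μM), PPARγ agonist and L-thyroxine, seeded 5000 per well.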

[1] = ThT assay for the assessment of physical stability (fibrillation); format: physicochemical; settings: ThT buffer system A: 100 mM phosphate buffer pH 7.4; 3 mg/ml, 37° C., shaking
From the text: Low physical stability of a peptide solution may lead to amyloid fibril formation, which is observed as well-ordered, thread-like macromolecular structures in the sample, which eventually may lead to gel formation. Thioflavin T (ThT) is widely used to visualize and quantify the presence of misfolded protein aggregates [Biancalana et al., Biochim. Biophys. Acta 2010, 1804(7), 1405]. […] Enzymol. 1999, 309, 274]. The time course for fibril formation often follows the characteristic shape of a sigmoidal curve and can be separated into three regions: a lag phase, a fast growth phase, and a plateau phase. The typical fibril formation process starts with the lag phase in which the amount of partially folded peptide turned into fibrils is not significant enough to be detected. The lag-time corresponds to the time the critical mass of the nucleus is built. Afterwards, a drastic elongation phase follows, and fibril concentration increases rapidly. Investigations were carried out to determine fibrillation tendencies under stress conditions by shaking at 37° C. within Fluoroskan Ascent FL or Fluoroskan Ascent. For the tests in Fluoroskan Ascent (FL), 200 μl sample were placed into a 96-well mictrotiter plate PS, flat bottom, Greiner Fluotrac No. 655076. Plates were sealed with Scotch Tape (Qiagen). Samples were stressed by continuous cycles of 10 sec shaking at 960 rpm and 50 sec rest period at 37° C. The kinetic was monitored by measuring fluorescence intensity every 20 min. Peptides were diluted in a buffer system to a final concentration of 3 mg/ml. 20 μl of a 10.1 mM ThT solution in H2O were added to 2 ml of peptide solution to receive a final concentration of 100 μM ThT. For each sample eight replicates were tested. • ThT buffer system A) 100 mM phosphate buffer pH 7.4 • ThT buffer system B) 100 mM phosphate buffer pH 7.4, 2.7 mg/ml m-cresol Lag time in hours (h) in Thioflavin T (ThT) assay of peptide samples was determined in ThT buffer system A as described in Methods.

[2] = Chemical stability assessment (UHPLC-UV purity loss on storage in solution); format: physicochemical; settings: Chemical stability buffer system A: 20 mM phosphate buffer pH 7.4; ~300 μM
Summary of the method: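 Peptides dissolved at ~300 μM (purity-corrected) in 20 mM phosphate pH 7.4, or 8 mM phosphate pH 7.4 with 14 mg/ml propylene glycol and 5.5 mg/ml phenol; filtered, stored 28 days at 5 and 40 °C. Supernatant analysed by UHPLC-UV; stability expressed as relative purity loss.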

Row | SMILES | Emax (human GIP receptor) | Increase in FI [1] | Lag time before increase [1] | Relative purity loss over 28 days at 40° C. [2] | EC50 (human GIP receptor)
1 | CC[C@H](C)[C@H](NC(=O)[C@H](CCC(=O)O)NC(=O)[C@H](CCC(=O)O)NC(=O)[C@H](CCCCNC(=O)COCCOCCNC(=O)COCCOCCNC(=O)CC[C@H](NC(=O)CCCCCCCCCCCCCCCCC(=O)O)C(=O)O)NC(=O)C(C)(C)NC(=O)[C@@H](NC(=O)[C@H](CO)NC(=O)[C@H](CC(C)C)NC(=O)[C@H](CC(=O)O)NC(=O)[C@H](CO)NC(=O)[C@@H](NC(=O)[C@H](Cc1ccccc1)NC(=O)[C@@H](NC(=O)CNC(=O)[C@H](CCC(=O)O)NC(=O)C(C)(C)NC(=O)[C@@H](N)Cc1ccc(O)cc1)[C@@H](C)O)[C@@H](C)CC)[C@@H](C)CC)C(=O)N[C@@H](Cc1c[nH]cn1)C(=O)N[C@@H](CCC(N)=O)C(=O)NC(C)(C)C(=O)N[C@@H](CCC(=O)O)C(=O)N[C@@H](Cc1ccccc1)C(=O)N[C@H](C(=O)N[C@@H](CCC(=O)O)C(=O)N[C@@H](Cc1c[nH]c2ccccc12)C(=O)N[C@@H](CC(C)C)C(=O)N[C@@H](CC(C)C)C(=O)N[C@@H](C)C(=O)N[C@@H](CCC(N)=O)C(=O)NCC(=O)N1CCC[C@H]1C(=O)N[C@@H](CO)C(=O)N[C@@H](CO)C(=O)NCC(=O)N[C@@H](C)C(=O)N1CCC[C@H]1C(=O)N1CCC[C@H]1C(=O)N1CCC[C@H]1C(=O)N[C@@H](CO)C(N)=O)[C@@H](C)CC [SEQ ID NO: 19, H2N-Y-Aib-E-G-T-F-I-S-D-L-S-I-Aib-K[{AEEA}2-gGlu-C18OH]-E-E-I-H-Q-Aib-E-F-I-E-W-L-L-A-Q-G-P-S-S-G-A-P-P-P-S-NH2] (H-Y[Aib]EGTFISDLSI[Aib]K([AEEA-AEEA-γGlu-C18 diacid])EEIHQ[Aib]EFIEWLLAQGPSSGAPPPS-NH2) | 94% | no | >45 h | 4.3% | –
2 | CC[C@H](C)[C@H](NC(=O)[C@H](Cc1ccccc1)NC(=O)[C@H](CCC(=O)O)NC(=O)C(C)(C)NC(=O)[C@H](CCC(N)=O)NC(=O)[C@H](Cc1c[nH]cn1)NC(=O)C(C)(C)NC(=O)[C@H](CCCNC(=N)N)NC(=O)[C@H](CC(=O)O)NC(=O)[C@H](CCCCNC(=O)COCCOCCNC(=O)COCCOCCNC(=O)CC[C@H](NC(=O)CCCCCCCCCCCCCCCCC(=O)O)C(=O)O)NC(=O)C(C)(C)NC(=O)[C@@H](NC(=O)[C@H](CO)NC(=O)[C@H](CC(C)C)NC(=O)[C@H](CC(=O)O)NC(=O)[C@H](CO)NC(=O)[C@@H](NC(=O)[C@H](Cc1ccccc1)NC(=O)[C@@H](NC(=O)CNC(=O)[C@H](CCC(=O)O)NC(=O)C(C)(C)NC(=O)[C@@H](N)Cc1ccc(O)cc1)[C@@H](C)O)[C@@H](C)CC)[C@@H](C)CC)C(=O)N[C@@H](CCC(=O)O)C(=O)N[C@@H](Cc1c[nH]c2ccccc12)C(=O)N[C@@H](CC(C)C)C(=O)N[C@@H](CC(C)C)C(=O)N[C@@H](C)C(=O)N[C@@H](CCC(N)=O)C(=O)N[C@@H](CCCNC(=N)N)C(=O)N1CCC[C@H]1C(=O)N[C@@H](CO)C(=O)N[C@@H](CO)C(=O)NCC(=O)N[C@@H](C)C(=O)N1CCC[C@H]1C(=O)N1CCC[C@H]1C(=O)N1CCC[C@H]1C(=O)N[C@@H](CO)C(N)=O [SEQ ID NO: 22, H2N-Y-Aib-E-G-T-F-I-S-D-L-S-I-Aib-K[{AEEA}2-gGlu-C18OH]-D-R-Aib-H-Q-Aib-E-F-I-E-W-L-L-A-Q-R-P-S-S-G-A-P-P-P-S-NH2] (H-Y[Aib]EGTFISDLSI[Aib]K([AEEA-AEEA-γGlu-C18 diacid])DR[Aib]HQ[Aib]EFIEWLLAQRPSSGAPPPS-NH2) | 98% | no | >45 h | 6.1% | 600 pM
3 | CC[C@H](C)[C@H](NC(=O)[C@H](CCCNC(=N)N)NC(=O)[C@H](CC(=O)O)NC(=O)[C@H](CCCCNC(=O)COCCOCCNC(=O)COCCOCCNC(=O)CC[C@H](NC(=O)CCCCCCCCCCCCCCCCC(=O)O)C(=O)O)NC(=O)C(C)(C)NC(=O)[C@@H](NC(=O)[C@H](CO)NC(=O)[C@H](CC(C)C)NC(=O)[C@H](CC(=O)O)NC(=O)[C@H](CO)NC(=O)[C@@H](NC(=O)[C@H](Cc1ccccc1)NC(=O)[C@@H](NC(=O)CNC(=O)[C@H](CCC(=O)O)NC(=O)C(C)(C)NC(=O)[C@@H](N)Cc1ccc(O)cc1)[C@@H](C)O)[C@@H](C)CC)[C@@H](C)CC)C(=O)N[C@@H](Cc1c[nH]cn1)C(=O)N[C@@H](CCC(N)=O)C(=O)NC(C)(C)C(=O)N[C@@H](CCC(=O)O)C(=O)N[C@@H](Cc1ccccc1)C(=O)N[C@H](C(=O)N[C@@H](CCC(=O)O)C(=O)N[C@@H](Cc1c[nH]c2ccccc12)C(=O)N[C@](C)(CC)C(=O)N[C@@H](CC(C)C)C(=O)N[C@@H](C)C(=O)N[C@@H](CCC(N)=O)C(=O)NCC(=O)N1CCC[C@H]1C(=O)N[C@@H](CO)C(=O)N[C@@H](CO)C(=O)NCC(=O)N[C@@H](C)C(=O)N1CCC[C@H]1C(=O)N1CCC[C@H]1C(=O)N1CCC[C@H]1C(=O)N[C@@H](CO)C(N)=O)[C@@H](C)CC [SEQ ID NO: 31, H2N-Y-Aib-E-G-T-F-I-S-D-L-S-I-Aib-K[{AEEA}2-gGlu-C18OH]-D-R-I-H-Q-Aib-E-F-I-E-W-Iva-L-A-Q-G-P-S-S-G-A-P-P-P-S-NH2] (H-Y[Aib]EGTFISDLSI[Aib]K([AEEA-AEEA-γGlu-C18 diacid])DRIHQ[Aib]EFIEW[dIva]LAQGPSSGAPPPS-NH2) | 121% | no | >45 h | 6.2% | 700 pM
4 | CC[C@H](C)[C@H](NC(=O)[C@H](Cc1ccccc1)NC(=O)[C@H](CCC(=O)O)NC(=O)[C@H](CCC(=O)O)NC(=O)[C@H](CCC(N)=O)NC(=O)[C@H](Cc1c[nH]cn1)NC(=O)[C@@H](NC(=O)[C@H](CCCNC(=N)N)NC(=O)[C@H](CC(=O)O)NC(=O)[C@H](CCCCNC(=O)COCCOCCNC(=O)COCCOCCNC(=O)CC[C@H](NC(=O)CCCCCCCCCCCCCCCCC(=O)O)C(=O)O)NC(=O)C(C)(C)NC(=O)[C@@H](NC(=O)[C@H](CO)NC(=O)[C@H](CC(C)C)NC(=O)[C@H](CC(=O)O)NC(=O)[C@H](CO)NC(=O)[C@@H](NC(=O)[C@H](Cc1ccccc1)NC(=O)[C@@H](NC(=O)CNC(=O)[C@H](CCC(=O)O)NC(=O)C(C)(C)NC(=O)[C@@H](N)Cc1ccc(O)cc1)[C@@H](C)O)[C@@H](C)CC)[C@@H](C)CC)[C@@H](C)CC)C(=O)N[C@@H](CCC(N)=O)C(=O)N[C@@H](Cc1c[nH]c2ccccc12)C(=O)N[C@@H](CC(C)C)C(=O)N[C@@H](CC(C)C)C(=O)N[C@@H](C)C(=O)N[C@@H](CCC(N)=O)C(=O)NCC(=O)N1CCC[C@H]1C(=O)N[C@@H](CO)C(=O)N[C@@H](CO)C(=O)NCC(=O)N[C@@H](C)C(=O)N1CCC[C@H]1C(=O)N1CCC[C@H]1C(=O)N1CCC[C@H]1C(=O)N[C@@H](CO)C(N)=O [SEQ ID NO: 35, H2N-Y-Aib-E-G-T-F-I-S-D-L-S-I-Aib-K[{AEEA}2-gGlu-C18OH]-DRIHQEEFIQWLLAQGPSSGAPPPS-NH2] (H-Y[Aib]EGTFISDLSI[Aib]K([AEEA-AEEA-γGlu-C18 diacid])DRIHQEEFIQWLLAQGPSSGAPPPS-NH2) | 120% | no | >45 h | 8.3% | 1300 pM

Source: patent US20240360194A1, “New Peptides as Potent and Selective GIP Receptor Agonists” (Sanofi, priority 2021, published 2024)
